In PubChem BioAssay (NCI):
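Test compounds were applied to cells in 96-well plates for 48 hours at 5 doses. The concentration for 50% growth inhibition is given as GI50. TGI is the concentration that stops growth completely.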

How the values were obtained:
Assay in all cases: NCI-60 cell line screen, 48 h
PC-3 prostate = test system: PC-3 prostate
RPMI-8226 leukemia = test system: RPMI-8226 leukemia
OVCAR-3 ovarian = test system: OVCAR-3 ovarian
UACC-257 melanoma = test system: UACC-257 melanoma
UACC-62 melanoma = test system: UACC-62 melanoma
A498 renal = test system: A498 renal
HS 578T breast = test system: HS 578T breast
OVCAR-4 ovarian = test system: OVCAR-4 ovarian
HCT-116 colon = test system: HCT-116 colon
T-47D breast = test system: T-47D breast
COLO 205 colon = test system: COLO 205 colon
CCRF-CEM leukemia = test system: CCRF-CEM leukemia
MDA-MB-435 = test system: MDA-MB-435
TK-10 renal = test system: TK-10 renal
SK-MEL-5 melanoma = test system: SK-MEL-5 melanoma
786-0 renal = test system: 786-0 renal
SN12C renal = test system: SN12C renal
U251 CNS = test system: U251 CNS
SK-MEL-28 melanoma = test system: SK-MEL-28 melanoma
OVCAR-5 ovarian = test system: OVCAR-5 ovarian
HCT-15 colon = test system: HCT-15 colon
UO-31 renal = test system: UO-31 renal
CAKI-1 renal = test system: CAKI-1 renal
NCI/ADR-RES ovarian = test system: NCI/ADR-RES ovarian
MOLT-4 leukemia = test system: MOLT-4 leukemia
MCF7 breast = test system: MCF7 breast
NCI-H460 lung = test system: NCI-H460 lung
HL-60(TB) leukemia = test system: HL-60(TB) leukemia
HOP-62 NSCLC = test system: HOP-62 NSCLC
ACHN renal = test system: ACHN renal
HOP-92 NSCLC = test system: HOP-92 NSCLC
HT29 colon = test system: HT29 colon
IGROV1 ovarian = test system: IGROV1 ovarian
EKVX NSCLC = test system: EKVX NSCLC
HCC-2998 colon = test system: HCC-2998 colon
NCI-H23 lung = test system: NCI-H23 lung
SF-539 CNS = test system: SF-539 CNS
MALME-3M melanoma = test system: MALME-3M melanoma
SR leukemia = test system: SR leukemia
M14 melanoma = test system: M14 melanoma
SW-620 colon = test system: SW-620 colon
SK-OV-3 ovarian = test system: SK-OV-3 ovarian
SF-295 CNS = test system: SF-295 CNS
MDA-MB-468 breast = test system: MDA-MB-468 breast
SNB-75 CNS = test system: SNB-75 CNS
LOX IMVI melanoma = test system: LOX IMVI melanoma
SNB-19 CNS = test system: SNB-19 CNS
K-562 leukemia = test system: K-562 leukemia
SF-268 CNS = test system: SF-268 CNS
A549 NSCLC = test system: A549 NSCLC
NCI-H226 lung = test system: NCI-H226 lung
DU-145 prostate = test system: DU-145 prostate
KM12 colon = test system: KM12 colon
RXF 393 renal = test system: RXF 393 renal
SK-MEL-2 melanoma = test system: SK-MEL-2 melanoma
BT-549 breast = test system: BT-549 breast
MDA-MB-231 breast = test system: MDA-MB-231 breast
OVCAR-8 ovarian = test system: OVCAR-8 ovarian
NCI-H522 lung = test system: NCI-H522 lung

`CN1CCN(c2ccc(Nc3nc(NCCCNC(=O)C4CCCCC4)c4sccc4n3)cc2)CC1` was tested, and the GI50 (PC-3 prostate) was 12.4 µM, the TGI (PC-3 prostate) was 42.2 µM and the GI50 (RPMI-8226 leukemia) was 3.92 µM. For the same compound, the TGI (RPMI-8226 leukemia) was 19.9 µM, the GI50 (OVCAR-3 ovarian) was 16.2 µM and the TGI (OVCAR-3 ovarian) was 33.5 µM. It also gave a GI50 (UACC-257 melanoma) of 3.61 µM, a TGI (UACC-257 melanoma) of 14.9 µM and a GI50 (UACC-62 melanoma) of 15.1 µM. The TGI (UACC-62 melanoma) was 28.6 µM, the GI50 (A498 renal) was 22 µM and the TGI (A498 renal) was 37.7 µM. The GI50 (HS 578T breast) was 12.8 µM, the TGI (HS 578T breast) was 36.2 µM and the GI50 (OVCAR-4 ovarian) was 15.7 µM. The TGI (OVCAR-4 ovarian) was 57.7 µM, the GI50 (HCT-116 colon) was 3.98 µM and the TGI (HCT-116 colon) was 18.5 µM. The GI50 (T-47D breast) was 11.4 µM, the TGI (T-47D breast) was 37.9 µM and the GI50 (COLO 205 colon) was 17.7 µM. The TGI (COLO 205 colon) was 38.2 µM, the GI50 (CCRF-CEM leukemia) was 3.77 µM and the TGI (CCRF-CEM leukemia) was 37.6 µM. The GI50 (MDA-MB-435) was 15.6 µM, the TGI (MDA-MB-435) was 30.8 µM and the GI50 (TK-10 renal) was 24.6 µM. The TGI (TK-10 renal) was 51.7 µM, the GI50 (SK-MEL-5 melanoma) was 8.82 µM and the TGI (SK-MEL-5 melanoma) was 21 µM. For the same compound, the GI50 (786-0 renal) was 10.8 µM, the TGI (786-0 renal) was 26.4 µM and the GI50 (SN12C renal) was 14.2 µM. For the same compound, the TGI (SN12C renal) was 29.4 µM, the GI50 (U251 CNS) was 4.64 µM and the TGI (U251 CNS) was 19.9 µM. The GI50 (SK-MEL-28 melanoma) was 6.24 µM, the TGI (SK-MEL-28 melanoma) was 19.5 µM and the GI50 (OVCAR-5 ovarian) was 16.1 µM. It also gave a TGI (OVCAR-5 ovarian) of 34.6 µM, a GI50 (HCT-15 colon) of 5.77 µM and a TGI (HCT-15 colon) of 25.6 µM. It also gave a GI50 (UO-31 renal) of 11.9 µM, a TGI (UO-31 renal) of 24.6 µM and a GI50 (CAKI-1 renal) of 14.5 µM. It also gave a TGI (CAKI-1 renal) of 30.5 µM, a GI50 (NCI/ADR-RES ovarian) of 21.1 µM and a TGI (NCI/ADR-RES ovarian) of 54.5 µM. It also gave a GI50 (MOLT-4 leukemia) of 3.19 µM, a TGI (MOLT-4 leukemia) of 20.8 µM and a GI50 (MCF7 breast) of 10 µM. For the same compound, the TGI (MCF7 breast) was 24 µM, the GI50 (NCI-H460 lung) was 14.6 µM and the TGI (NCI-H460 lung) was 30.8 µM. It also gave a GI50 (HL-60(TB) leukemia) of 4.55 µM, a TGI (HL-60(TB) leukemia) of 23.3 µM and a GI50 (HOP-62 NSCLC) of 18.2 µM. It also gave a TGI (HOP-62 NSCLC) of 36.3 µM, a GI50 (ACHN renal) of 15.6 µM and a TGI (ACHN renal) of 35.1 µM. It also gave a GI50 (HOP-92 NSCLC) of 10.6 µM, a TGI (HOP-92 NSCLC) of 34.3 µM and a GI50 (HT29 colon) of 4.28 µM. It also gave a TGI (HT29 colon) of 17 µM, a GI50 (IGROV1 ovarian) of 14 µM and a TGI (IGROV1 ovarian) of 30.8 µM. The GI50 (EKVX NSCLC) was 15.8 µM, the TGI (EKVX NSCLC) was 33.9 µM and the GI50 (HCC-2998 colon) was 13.8 µM. The TGI (HCC-2998 colon) was 26.9 µM, the GI50 (NCI-H23 lung) was 14.1 µM and the TGI (NCI-H23 lung) was 29.1 µM. For the same compound, the GI50 (SF-539 CNS) was 3.15 µM, the TGI (SF-539 CNS) was 12.8 µM and the GI50 (MALME-3M melanoma) was 7.31 µM. The TGI (MALME-3M melanoma) was 19.8 µM, the GI50 (SR leukemia) was 2.13 µM and the TGI (SR leukemia) was 6.3 µM. The GI50 (M14 melanoma) was 4.23 µM, the TGI (M14 melanoma) was 16 µM and the GI50 (SW-620 colon) was 17.3 µM. The TGI (SW-620 colon) was 36.4 µM, the GI50 (SK-OV-3 ovarian) was 23.4 µM and the TGI (SK-OV-3 ovarian) was 59.2 µM. It also gave a GI50 (SF-295 CNS) of 12.9 µM, a TGI (SF-295 CNS) of 26.3 µM and a GI50 (MDA-MB-468 breast) of 2.96 µM. It also gave a TGI (MDA-MB-468 breast) of 17.2 µM, a GI50 (SNB-75 CNS) of 11.2 µM and a TGI (SNB-75 CNS) of 24.7 µM. The GI50 (LOX IMVI melanoma) was 10.7 µM, the TGI (LOX IMVI melanoma) was 23.1 µM and the GI50 (SNB-19 CNS) was 22.1 µM. It also gave a TGI (SNB-19 CNS) of 47.1 µM, a GI50 (K-562 leukemia) of 2.72 µM and a TGI (K-562 leukemia) of 47 µM. For the same compound, the GI50 (SF-268 CNS) was 10.4 µM, the TGI (SF-268 CNS) was 40.7 µM and the GI50 (A549 NSCLC) was 20.7 µM. The TGI (A549 NSCLC) was 80.8 µM, the GI50 (NCI-H226 lung) was 12.6 µM and the TGI (NCI-H226 lung) was 26.3 µM. For the same compound, the GI50 (DU-145 prostate) was 14.9 µM, the TGI (DU-145 prostate) was 30.5 µM and the GI50 (KM12 colon) was 19.4 µM. For the same compound, the TGI (KM12 colon) was 44.9 µM, the GI50 (RXF 393 renal) was 5.49 µM and the TGI (RXF 393 renal) was 20 µM. It also gave a GI50 (SK-MEL-2 melanoma) of 18.7 µM, a TGI (SK-MEL-2 melanoma) of 33.6 µM and a GI50 (BT-549 breast) of 13.3 µM. For the same compound, the TGI (BT-549 breast) was 27.3 µM, the GI50 (MDA-MB-231 breast) was 13.2 µM and the TGI (MDA-MB-231 breast) was 30.8 µM. For the same compound, the GI50 (OVCAR-8 ovarian) was 16 µM, the TGI (OVCAR-8 ovarian) was 36.7 µM and the GI50 (NCI-H522 lung) was 13 µM. It also gave a TGI (NCI-H522 lung) of 27 µM.
